Several values for one entry are separate records, joined by “and”; a condition that tells them apart may be missing. Identical values can stand only once. Toxic doses and inconclusive results are not listed. Rule for the calls: active = survival T/C of 150% or more; inactive = T/C below 125% in these data.
System: P388 leukemia ip, CD2F1 mice, survival T/C
Test: NCI In Vivo Anticancer Drug Screen. Data for tumor model P388 Leukemia (intraperitoneal) in CD2F1 (CDF1) mice
Conditions: endpoint: median survival time, higher = longer survival
Method in brief: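 Mice carrying the transplanted tumor received test compound or vehicle. Survival was recorded in each group, and the value is the treated-group measurement divided by that of the vehicle-treated control group.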

[1] = dose: 25.0 mg/kg/injection, schedule: Q01DX009 (ip), vehicle: saline
[2] = dose: 50.0 mg/kg/injection, schedule: Q01DX009 (ip), vehicle: saline
[3] = dose: 50.0 mg/kg/injection, schedule: Q01DX005 (ip), vehicle: Klucel (hydroxypropylcellulose) (HPC)
[4] = dose: 100.0 mg/kg/injection, schedule: Q01DX005 (ip), vehicle: Klucel (hydroxypropylcellulose) (HPC)
[5] = dose: 200.0 mg/kg/injection, schedule: Q01DX005 (ip), vehicle: Klucel (hydroxypropylcellulose) (HPC)
[6] = dose: 50.0 mg/kg/injection, schedule: Q01DX005 (ip), vehicle: saline with Tween-80
[7] = dose: 100.0 mg/kg/injection, schedule: Q01DX005 (ip), vehicle: saline with Tween-80
[8] = dose: 100.0 mg/kg/injection, schedule: Q01DX009 (ip), vehicle: saline with Tween-80
[9] = dose: 200.0 mg/kg/injection, schedule: Q01DX009 (ip), vehicle: saline with Tween-80
[10] = dose: 200.0 mg/kg/injection, schedule: Q01DX005 (ip), vehicle: saline with Tween-80
[11] = dose: 50.0 mg/kg/injection, schedule: Q01DX009 (ip), vehicle: saline with Tween-80
[12] = dose: 12.5 mg/kg/injection, schedule: Q01DX009 (ip), vehicle: saline with Tween-80
[13] = dose: 25.0 mg/kg/injection, schedule: Q01DX009 (ip), vehicle: saline with Tween-80
[14] = dose: 100.0 mg/kg/injection, schedule: Q04DX003 (ip), vehicle: saline
[15] = dose: 200.0 mg/kg/injection, schedule: Q04DX003 (ip), vehicle: saline

Measured: T/C

C/C=C/CC1(C)N=C1c1ccccc1 (stereo unspecified)
inactive: dose: 100.0 mg/kg/injection, schedule: Q01DX001 (ip), vehicle: Klucel (hydroxypropylcellulose) (HPC) 99 % of control | dose: 200.0 mg/kg/injection, schedule: Q01DX001 (ip), vehicle: Klucel (hydroxypropylcellulose) (HPC) 99 % of control | dose: 400.0 mg/kg/injection, schedule: Q01DX001 (ip), vehicle: Klucel (hydroxypropylcellulose) (HPC) 102 % of control

CCNC(C)(C)C(SSSC(c1ccc(Cl)cc1)C(C)(C)NCC)c1ccc(Cl)cc1 (stereo unspecified)
inactive: dose: 6.25 mg/kg/injection, schedule: Q01DX009 (ip), vehicle: saline 109 % of control | dose: 12.5 mg/kg/injection, schedule: Q01DX009 (ip), vehicle: saline 115 % of control | [1] 105 % of control | [2] 101 % of control

O=S(=O)(C1=NOC(c2ccccc2)C1)c1ccccc1 (stereo unspecified)
inactive: [3] 99 % of control | [4] 95 % of control | [5] 93 % of control

CCOC1(OCC)Oc2c(c3ccccc3c3ccccc23)/C1=C1\c2c(c3ccccc3c3ccccc23)OC1(OCC)OCC
inactive: [6] 94 % of control | [7] 92 % of control

CC(C)Cc1c[nH]c(=O)[nH]c1=O
inactive: [8] 95 % of control | [9] 95 % of control | dose: 400.0 mg/kg/injection, schedule: Q01DX009 (ip), vehicle: saline with Tween-80 91 % of control

CS/C(=C1/C(=O)N(c2ccccc2)N=C1c1ccc(Cl)cc1)N1CC1
inactive: dose: 25.0 mg/kg/injection, schedule: Q04DX003 (ip), vehicle: Klucel (hydroxypropylcellulose) (HPC) 96 % of control | dose: 50.0 mg/kg/injection, schedule: Q04DX003 (ip), vehicle: Klucel (hydroxypropylcellulose) (HPC) 99 % of control | dose: 100.0 mg/kg/injection, schedule: Q04DX003 (ip), vehicle: Klucel (hydroxypropylcellulose) (HPC) 99 % of control | dose: 200.0 mg/kg/injection, schedule: Q04DX003 (ip), vehicle: Klucel (hydroxypropylcellulose) (HPC) 99 % of control | dose: 400.0 mg/kg/injection, schedule: Q04DX003 (ip), vehicle: Klucel (hydroxypropylcellulose) (HPC) 91 % of control

COc1ccc2c(c1)C(Cc1ccc(Oc3cc(CC4c5cc(OC)ccc5CC[N+]4(C)C)ccc3OC)cc1)[N+](C)(C)CC2 (stereo unspecified)
inactive: dose: 1.56 mg/kg/injection, schedule: Q04DX003 (ip), vehicle: water 106 % of control | dose: 3.13 mg/kg/injection, schedule: Q04DX003 (ip), vehicle: water 102 % of control

Cc1ccc(S(=O)(=O)N(C)C)cc1NC1=NCCO1
inactive: dose: 50.0 mg/kg/injection, schedule: Q01DX001 (ip), vehicle: saline with Tween-80 95 % of control | dose: 100.0 mg/kg/injection, schedule: Q01DX001 (ip), vehicle: saline with Tween-80 95 % of control | dose: 200.0 mg/kg/injection, schedule: Q01DX001 (ip), vehicle: saline with Tween-80 100 % of control

O=C1CC2C(=O)NC(=O)C2C(=O)N1 (stereo unspecified)
inactive: [6] 104 % of control | [7] 101 % of control | [10] 99 % of control

COc1ccc(/C=C2\C(=O)N(Cc3ccco3)SC2=S)c(OC)c1OC
inactive: [11] 90 % of control | [8] 90 % of control | [9] 106 % of control

Nc1ccc(/C=C/c2cccc3cccnc23)cc1
inactive: [12] 96 % of control | [13] 96 % of control | [11] 93 % of control

CC1CN(CC#CCN2C(=O)CCC2=O)CC(C)O1 (stereo unspecified)
inactive: dose: 25.0 mg/kg/injection, schedule: Q01DX005 (ip), vehicle: Klucel (hydroxypropylcellulose) (HPC) 103 % of control | [3] 107 % of control | [4] 103 % of control | [5] 107 % of control

O=C(NCCCCCCCCNC(=O)C(Cl)Cl)C(Cl)Cl
inactive: [6] 106 % of control | [7] 99 % of control | [10] 92 % of control

N#CCCn1ncc(=O)[nH]c1=O
inactive: dose: 50.0 mg/kg/injection, schedule: Q01DX005 (ip), vehicle: water 101 % of control | dose: 100.0 mg/kg/injection, schedule: Q01DX005 (ip), vehicle: water 104 % of control | dose: 200.0 mg/kg/injection, schedule: Q01DX005 (ip), vehicle: water 107 % of control

CC(C(=O)O)N1CN(/N=C/c2ccc(Cl)cc2Cl)C(N)=NC1(O)CCl (stereo unspecified)
inactive: dose: 60.0 mg/kg/injection, schedule: Q01DX005 (ip), vehicle: saline 101 % of control | dose: 120.0 mg/kg/injection, schedule: Q01DX005 (ip), vehicle: saline 101 % of control | dose: 240.0 mg/kg/injection, schedule: Q01DX005 (ip), vehicle: saline 115 % of control

O=C(COc1ccc(Cl)cc1Cl)NCCN1CCCCC1
inactive: dose: 50.0 mg/kg/injection, schedule: Q01DX009 (ip), vehicle: Klucel (hydroxypropylcellulose) (HPC) 107 % of control | dose: 100.0 mg/kg/injection, schedule: Q01DX009 (ip), vehicle: Klucel (hydroxypropylcellulose) (HPC) 100 % of control | dose: 200.0 mg/kg/injection, schedule: Q01DX009 (ip), vehicle: Klucel (hydroxypropylcellulose) (HPC) 100 % of control

O=C1C=CC(=O)N1Cc1ccco1
inactive: [14] 90 % of control | [15] 95 % of control | dose: 400.0 mg/kg/injection, schedule: Q04DX003 (ip), vehicle: saline 95 % of control

CNC(=S)N/N=C/c1ccccc1
inactive: [13] 110 % of control | [11] 112 % of control | [2] 100 % of control | [8] 117 % of control | dose: 100.0 mg/kg/injection, schedule: Q01DX009 (ip), vehicle: saline 105 % of control | [9] 100 % of control | dose: 200.0 mg/kg/injection, schedule: Q01DX009 (ip), vehicle: saline 100 % of control

Cn1cncc1/C=N\NC(N)=S
inactive: [13] 102 % of control | [11] 88 % of control | dose: 50.0 mg/kg/injection, schedule: Q04DX003 (ip), vehicle: saline 109 % of control | [8] 110 % of control | [14] 102 % of control | [15] 102 % of control

COc1cc(/C=N\Nc2ccccc2[N+](=O)[O-])cc(OC)c1OC
inactive: dose: 100.0 mg/kg/injection, schedule: Q04DX003 (ip), vehicle: saline with Tween-80 87 % of control | dose: 200.0 mg/kg/injection, schedule: Q04DX003 (ip), vehicle: saline with Tween-80 87 % of control | dose: 400.0 mg/kg/injection, schedule: Q04DX003 (ip), vehicle: saline with Tween-80 91 % of control

Cc1cc(C)[n+]2n1C(=O)C(c1ccc(C3C(=O)n4c(C)cc(C)[n+]4C3=O)cc1)C2=O (stereo unspecified)
inactive: dose: 50.0 mg/kg/injection, schedule: Q01DX005 (ip), vehicle: Klucel + Tween-80 99 % of control | dose: 100.0 mg/kg/injection, schedule: Q01DX005 (ip), vehicle: Klucel + Tween-80 97 % of control | dose: 200.0 mg/kg/injection, schedule: Q01DX005 (ip), vehicle: Klucel + Tween-80 100 % of control

CCN(CC)CCC(=O)c1ccccc1
inactive: [12] 102 % of control and 89 % of control | [13] 108 % of control | [1] 97 % of control | [11] 109 % of control and 91 % of control | [2] 96 % of control | [8] 123 % of control

COc1cccc2c1C(=O)c1c(O)c3c(c(O)c1C2=O)C[C@@](O)(C(=O)CO)C[C@@H]3OC1CC(N2CCOCC2)C(O)C(C)O1 (stereo partly specified)
active: dose: 22.0 micrograms/kg/injection, schedule: Q04DX003 (iv), vehicle: saline + alcohol 153 % of control | dose: 33.0 micrograms/kg/injection, schedule: Q04DX003 (iv), vehicle: saline + alcohol 180 % of control | dose: 50.0 micrograms/kg/injection, schedule: Q04DX003 (iv), vehicle: saline + alcohol 173 % of control
inactive: dose: 5.0 micrograms/kg/injection, schedule: Q04DX003 (ip), vehicle: water 102 % of control | dose: 10.0 micrograms/kg/injection, schedule: Q04DX003 (ip), vehicle: water 107 % of control | dose: 20.0 micrograms/kg/injection, schedule: Q04DX003 (ip), vehicle: water 106 % of control | dose: 31.25 micrograms/kg/injection, schedule: Q04DX003 (ip), vehicle: water 106 % of control | dose: 40.0 micrograms/kg/injection, schedule: Q04DX003 (ip), vehicle: water 104 % of control | dose: 62.5 micrograms/kg/injection, schedule: Q04DX003 (ip), vehicle: water 100 % of control | dose: 75.0 micrograms/kg/injection, schedule: Q04DX003 (iv), vehicle: saline + alcohol 113 % of control | dose: 125.0 micrograms/kg/injection, schedule: Q04DX003 (ip), vehicle: water 111 % of control | dose: 250.0 micrograms/kg/injection, schedule: Q04DX003 (ip), vehicle: water 110 % of control | dose: 500.0 micrograms/kg/injection, schedule: Q04DX003 (ip), vehicle: water 99 % of control

— PubChem BioAssay AID330 (DTP/NCI, 2004)
